Assay results: patent US9403808B2, “Pyrazine derivatives” (Hoffmann-La Roche Inc., priority 2011, dated 2016)

Columns and labels:
[1] = molecular target: human CB1 receptors (Homo sapiens (Human), UniProt P21554); test: functional cAMP assay, CB1; type: cell-based; conditions: functional cAMP assay, CHO cells expressing human CB1; read-out: human CB1 EC50
Experimental: (§1) CHO cells expressing human CB1 or CB2 receptors are seeded 17-24 hours prior to the experiment 50.000 cells per well in a black 96 well plate with flat clear bottom (Corning Costar #3904) in DMEM (Invitrogen No. 31331), 1×HT supplement, with 10% fetal calf serum and incubated at 5% CO2 and 37° C. in a humidified incubator. The growth medium was exchanged with Krebs Ringer Bicarbonate buffer with 1 mM IBMX and incubated at 30° C. for 30 min. Compounds were added to a final assay volume of 100 μl and incubated for 30 min at 30° C. Using the cAMP-Nano-TRF detection kit the assay (Roche Diagnostics) was stopped by the addition of 50 μl lysis reagent (Tris, NaCl, 1.5% Triton X100, 2.5% NP40, 10% NaN3) and 50 μl detection solutions (20 μM mAb Alexa700-cAMP 1:1, and 48 μM Ruthenium-2-AHA-cAMP) and shaken for 2 h at room temperature. The time-resolved energy transfer is measured by a TRF reader (Evotec Technologies GmbH), equipped with a ND:YAG laser as excitation source. The plate is measured twice with the excitation at 355 nm and at the emission with a delay of 100 ns and a gate of 100 ns, total exposure time 10s at 730 (bandwidth 30 nm) or 645 nm (bandwidth 75 nm), respectively. The FRET signal is calculated as follows: FRET=T730-Alexa730-P(T645-B645) with P=Ru730-B730/Ru645-B645, where T730 is the test well measured at […], T645 is the test well measured at 645 nm, B730 and B645 are the buffer controls at 730 nm and 645 nm, respectively. cAMP content is determined from the function of a standard curve spanning from 10 μM to 0.13 nM cAMP.
(§2) EC50 values were determined using Activity Base analysis (ID Business Solution, Limited). The EC50 values for a wide range of cannabinoid agonists generated from this assay were in agreement with the values published in the scientific literature.

[2] = molecular target: human CB2 receptors (Homo sapiens (Human), UniProt P34972); test: functional cAMP assay, CB2; type: cell-based; conditions: functional cAMP assay, CHO cells expressing human CB2; read-out: human CB2 EC50
Experimental: as §1, §2

Chain of human CB1 receptors (P21554 whole entry): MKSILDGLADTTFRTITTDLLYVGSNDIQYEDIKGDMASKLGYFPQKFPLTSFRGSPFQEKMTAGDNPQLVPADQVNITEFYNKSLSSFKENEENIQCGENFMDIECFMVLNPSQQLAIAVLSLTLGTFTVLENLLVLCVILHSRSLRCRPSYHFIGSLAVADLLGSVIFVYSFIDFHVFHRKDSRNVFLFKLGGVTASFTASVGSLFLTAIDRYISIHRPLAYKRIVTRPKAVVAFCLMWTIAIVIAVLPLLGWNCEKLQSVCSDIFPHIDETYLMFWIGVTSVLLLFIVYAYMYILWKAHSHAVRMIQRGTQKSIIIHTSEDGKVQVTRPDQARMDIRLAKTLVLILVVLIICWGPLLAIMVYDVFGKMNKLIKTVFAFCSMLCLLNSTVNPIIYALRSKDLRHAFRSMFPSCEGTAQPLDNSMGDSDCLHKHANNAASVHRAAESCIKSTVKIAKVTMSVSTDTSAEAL
Chain of human CB2 receptors (P34972 whole entry): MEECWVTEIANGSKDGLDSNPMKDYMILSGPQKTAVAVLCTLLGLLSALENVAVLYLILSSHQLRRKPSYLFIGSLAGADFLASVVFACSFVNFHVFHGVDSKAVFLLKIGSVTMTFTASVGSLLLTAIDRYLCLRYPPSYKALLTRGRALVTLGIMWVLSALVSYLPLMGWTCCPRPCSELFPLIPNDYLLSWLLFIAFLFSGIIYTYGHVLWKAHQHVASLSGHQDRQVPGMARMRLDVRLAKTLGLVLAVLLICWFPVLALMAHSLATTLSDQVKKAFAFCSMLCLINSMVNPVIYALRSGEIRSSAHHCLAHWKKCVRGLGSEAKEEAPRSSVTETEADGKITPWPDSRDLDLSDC

NC(=O)[C@H](Cc1ccccc1)NC(=O)c1cnc(C2CC2)c(OCC2CC2)n1 [Example 37, 5-Cyclopropyl-6-cyclopropylmethoxy-pyrazine-2-carboxylic acid ((S)-1-carbamoyl-2-phenyl-ethyl)-amide]
EC50 [1]: 1640 nM
EC50 [2]: 108 nM

NC(=O)[C@H](Cc1ccccc1)NC(=O)c1cnc(N2CC(F)(F)C2)c(OCC2CC2)n1 [Example 38, 6-Cyclopropylmethoxy-5-(3,3-difluoro-azetidin-1-yl)-pyrazine-2-carboxylic acid ((S)-1-carbamoyl-2-phenyl-ethyl)-amide]
EC50 [1]: > 10000 nM
EC50 [2]: 44.4 nM

NC(=O)[C@H](CC1CC1)NC(=O)c1cnc(N2CC(F)(F)C2)c(OCC2CC2)n1 [Example 39, 6-Cyclopropylmethoxy-5-(3,3-difluoro-azetidin-1-yl)-pyrazine-2-carboxylic acid ((S)-1-carbamoyl-2-cyclopropyl-ethyl)-amide]
EC50 [1]: > 10000 nM
EC50 [2]: 11 nM

CC(C)(C)[C@H](NC(=O)c1cnc(C2CC2)c(OCC2CC2)n1)C(=O)O [Example 44, (S)-2-[(5-Cyclopropyl-6-cyclopropylmethoxy-pyrazine-2-carbonyl)-amino]-3,3-dimethyl-butyric acid]
EC50 [1]: > 10000 nM
EC50 [2]: 442 nM

Cc1nc(C(C)(C)NC(=O)c2cnc(C3CC3)c(OCC3CC3)n2)no1 [Example 45, 5-Cyclopropyl-6-cyclopropylmethoxy-pyrazine-2-carboxylic acid [1-methyl-1-(5-methyl-[1,2,4]oxadiazol-3-yl)-ethyl]-amide]
EC50 [1]: > 10000 nM
EC50 [2]: 51.4 nM

C[C@H](NC(=O)c1cnc(C2CC2)c(OCC2CC2)n1)c1ccccn1 [Example 46, 5-Cyclopropyl-6-cyclopropylmethoxy-pyrazine-2-carboxylic acid ((S)-1-pyridin-2-yl-ethyl)-amide]
EC50 [1]: > 10000 nM
EC50 [2]: 291 nM

O=C(N[C@H](c1ccccn1)C(F)(F)F)c1cnc(N2CC(F)(F)C2)c(OCC2CC2)n1 [Example 47, 6-Cyclopropylmethoxy-5-(3,3-difluoro-azetidin-1-yl)-pyrazine-2-carboxylic acid ((R)-2,2,2-trifluoro-1-pyridin-2-yl-ethyl)-amide]
EC50 [1]: > 10000 nM
EC50 [2]: 72.9 nM

O=C(N[C@@H](c1ccccn1)C(F)(F)F)c1cnc(N2CC(F)(F)C2)c(OCC2CC2)n1 [Example 48, 6-Cyclopropylmethoxy-5-(3,3-difluoro-azetidin-1-yl)-pyrazine-2-carboxylic acid ((S)-2,2,2-trifluoro-1-pyridin-2-yl-ethyl)-amide]
EC50 [1]: > 10000 nM
EC50 [2]: 24.4 nM

O=C(N[C@@H](c1ccccn1)C(F)(F)F)c1cnc(C2CC2)c(OCC2CC2)n1 [Example 49, 5-Cyclopropyl-6-cyclopropylmethoxy-pyrazine-2-carboxylic acid ((S)-2,2,2-trifluoro-1-pyridin-2-yl-ethyl)-amide]
EC50 [1]: > 10000 nM
EC50 [2]: 107 nM

CCC(CC)(NC(=O)c1cnc(N2CC(F)(F)C2)c(OCC2CC2)n1)C(=O)NC [Example 50, 6-Cyclopropylmethoxy-5-(3,3-difluoro-azetidin-1-yl)-pyrazine-2-carboxylic acid (1-ethyl-1-methylcarbamoyl-propyl)-amide]
EC50 [1]: > 10000 nM
EC50 [2]: 7.4 nM

CC(C)[C@](C)(CO)NC(=O)c1cnc(C2CC2)c(OCC2CC2)n1 [Example 51, 5-Cyclopropyl-6-cyclopropylmethoxy-pyrazine-2-carboxylic acid ((R)-1-hydroxymethyl-1,2-dimethyl-propyl)-amide]
EC50 [1]: > 10000 nM
EC50 [2]: 137 nM

CC(C)[C@@](C)(CO)NC(=O)c1cnc(C2CC2)c(OCC2CC2)n1 [Example 52, 5-Cyclopropyl-6-cyclopropylmethoxy-pyrazine-2-carboxylic acid ((S)-1-hydroxymethyl-1,2-dimethyl-propyl)-amide]
EC50 [1]: > 10000 nM
EC50 [2]: 36.9 nM
